Patent US10259810B2, “N-sulfonylated pyrazolo[3,4-b]pyridin-6-carboxamides and method of use” (AbbVie S.à.r.l., priority 2015, dated 2019)

Legend:
[1] = biological target: T1, ΔF508-CFTR (Homo sapiens, UniProt P13569, DEL508-508); experiment: CFTR cell surface levels using HRP-tagged ΔF508-CFTR expressing CFBE cells, in the presence of a co-corrector; type: cell-based
T1 construct: host or cells: CFBE41o-, doxycycline-inducible
In short: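 Chemiluminescent read-out of surface HRP (15 min, dark) after PBS washes. Activity is normalized as 100×(sample−DMSO)/(3 μM co-corrector alone−DMSO).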

[2] = biological target: T1, ΔF508-CFTR; experiment: CFTR cell surface levels using HRP-tagged ΔF508-CFTR expressing CFBE cells, intrinsic corrector capacity; type: cell-based; design: % Activation: concentration or dose not given beside the values
In short: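 Surface ΔF508-CFTR was measured as HRP chemiluminescence from an extracellular-loop-4 tag, expressed as percent activity between DMSO and a […] corrector control.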

[3] = HRP-tagged ΔF508-CFTR CFBE cells, in the presence of 3 μM co-corrector
[4] = HRP-tagged ΔF508-CFTR CFBE cells, in the presence of 3 μM co-corrector, read-out: EC50
[5] = HRP-tagged ΔF508-CFTR expressing CFBE41o- cells, compound alone (intrinsic corrector capacity), 20 hours at 33° C.
[6] = HRP-tagged ΔF508-CFTR expressing CFBE41o- cells, compound alone (intrinsic corrector capacity), 20 hours at 33° C., read-out: EC50

T1 sequence (P13569 with tags, fused parts or gaps DEL508-508): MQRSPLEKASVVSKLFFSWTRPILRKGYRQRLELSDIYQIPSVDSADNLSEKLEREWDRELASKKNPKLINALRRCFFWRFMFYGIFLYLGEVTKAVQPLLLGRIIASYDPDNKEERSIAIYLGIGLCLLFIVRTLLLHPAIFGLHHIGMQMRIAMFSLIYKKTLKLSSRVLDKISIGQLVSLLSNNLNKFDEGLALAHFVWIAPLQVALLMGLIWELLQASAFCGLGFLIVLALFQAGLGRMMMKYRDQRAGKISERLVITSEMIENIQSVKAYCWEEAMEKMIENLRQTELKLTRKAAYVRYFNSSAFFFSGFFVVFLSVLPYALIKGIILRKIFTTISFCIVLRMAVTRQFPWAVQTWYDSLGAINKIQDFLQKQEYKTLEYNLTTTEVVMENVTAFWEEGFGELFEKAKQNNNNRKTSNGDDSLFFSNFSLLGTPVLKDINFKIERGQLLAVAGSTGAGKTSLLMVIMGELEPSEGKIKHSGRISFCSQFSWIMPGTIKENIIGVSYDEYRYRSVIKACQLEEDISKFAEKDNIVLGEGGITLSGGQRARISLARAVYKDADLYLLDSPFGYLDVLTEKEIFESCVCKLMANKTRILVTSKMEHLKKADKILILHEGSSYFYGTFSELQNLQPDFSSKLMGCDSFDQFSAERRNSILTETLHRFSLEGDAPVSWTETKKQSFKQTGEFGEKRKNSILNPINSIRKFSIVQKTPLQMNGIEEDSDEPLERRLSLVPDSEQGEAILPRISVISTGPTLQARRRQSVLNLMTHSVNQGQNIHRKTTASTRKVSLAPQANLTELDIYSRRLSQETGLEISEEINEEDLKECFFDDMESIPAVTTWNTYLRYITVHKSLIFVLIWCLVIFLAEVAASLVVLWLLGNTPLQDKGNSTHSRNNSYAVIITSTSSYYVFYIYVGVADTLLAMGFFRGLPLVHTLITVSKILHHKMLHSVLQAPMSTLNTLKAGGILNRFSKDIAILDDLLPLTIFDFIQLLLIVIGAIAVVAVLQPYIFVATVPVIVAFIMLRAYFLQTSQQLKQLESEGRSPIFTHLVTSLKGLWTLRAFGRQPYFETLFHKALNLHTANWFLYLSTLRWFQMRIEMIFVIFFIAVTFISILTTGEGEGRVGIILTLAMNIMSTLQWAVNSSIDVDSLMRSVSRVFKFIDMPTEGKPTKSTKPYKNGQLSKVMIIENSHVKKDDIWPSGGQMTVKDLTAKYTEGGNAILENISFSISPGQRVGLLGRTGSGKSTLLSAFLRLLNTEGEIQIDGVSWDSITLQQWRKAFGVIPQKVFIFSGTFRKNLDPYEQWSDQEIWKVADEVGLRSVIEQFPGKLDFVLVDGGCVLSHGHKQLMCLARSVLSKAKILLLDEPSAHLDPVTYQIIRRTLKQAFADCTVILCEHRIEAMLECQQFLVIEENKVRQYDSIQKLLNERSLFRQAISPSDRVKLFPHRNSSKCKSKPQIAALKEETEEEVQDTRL

O=C(NS(=O)(=O)N1CCC(N2CCCCC2)CC1)c1cc(N2CCC(N3CCOCC3)CC2)c2c(C3CCC3)nn(-c3ccccc3)c2n1 [Compound 453, N-([1,4'-bipiperidine]-1'-sulfonyl)-3-cyclobutyl-4-[4-(morpholin-4-yl)piperidin-1-yl]-1-phenyl-1H-pyrazolo[3,4-b]pyridine-6-carboxamide]
% Activation [1, 3]: 385.1% | EC50 [1, 4]: 319 nM | % Activation [2, 5]: 149.3% | EC50 [2, 6]: 403 nM

O=C(NS(=O)(=O)CCCN1CCOCC1)c1cc(N2CCC(N3CCCCC3)CC2)c2c(C3CCC3)nn(-c3ccccc3)c2n1 [Compound 454, 4-([1,4′-bipiperidin]-1′-yl)-3-cyclobutyl-N-[3-(morpholin-4-yl)propane-1-sulfonyl]-1-phenyl-1H-pyrazolo[3,4-b]pyridine-6-carboxamide]
EC50 [1]: 639 nM | % Activation [1, 3]: 430.2% | EC50 [2]: 1670 nM | % Activation [2, 5]: 168.1%

CCOC(=O)N1CCC(NS(=O)(=O)NC(=O)c2cc(N3CCC(CN4CCCC4)CC3)c3c(C4CCC4)nn(-c4ccccc4)c3n2)CC1 [Compound 457, ethyl 4-{[(3-cyclobutyl-1-phenyl-4-{4-[(pyrrolidin-1-yl)methyl]piperidin-1-yl}-1H-pyrazolo[3,4-b]pyridine-6-carbonyl)sulfamoyl]amino}piperidine-1-carboxylate]
% Activation [1, 3]: 508% | EC50 [1, 4]: 139 nM | % Activation [2, 5]: 272.2% | EC50 [2, 6]: 128 nM

COC[C@H]1CCCN1C1CCN(S(=O)(=O)NC(=O)c2cc(N3CCC(CN4CCCC4)CC3)c3c(C4CCC4)nn(-c4ccccc4)c3n2)CC1 [Compound 458, 3-cyclobutyl-N-{4-[(2R)-2-(methoxymethyl)pyrrolidin-1-yl]piperidine-1-sulfonyl}-1-phenyl-4-{4-[(pyrrolidin-1-yl)methyl]piperidin-1-yl}-1H-pyrazolo[3,4-b]pyridine-6-carboxamide]
% Activation [1, 3]: 282.8% | EC50 [1, 4]: 920 nM | % Activation [2, 5]: 124.4% | EC50 [2, 6]: 794 nM

O=C(NS(=O)(=O)N1CCC(F)CC1)c1cc(N2CCC(CN3CCCC3)CC2)c2c(C3CCC3)nn(-c3ccccc3)c2n1 [Compound 459, 3-cyclobutyl-N-(4-fluoropiperidine-1-sulfonyl)-1-phenyl-4-{4-[(pyrrolidin-1-yl)methyl]piperidin-1-yl}-1H-pyrazolo[3,4-b]pyridine-6-carboxamide]
% Activation [1, 3]: 388.87% | EC50 [1, 4]: 96.1 nM | % Activation [2, 5]: 225.65% | EC50 [2, 6]: 149 nM

CN1CCN(S(=O)(=O)NC(=O)c2cc(N3CCC(CN4CCCC4)CC3)c3c(C4CCC4)nn(-c4ccccc4)c3n2)CC1 [Compound 460, 3-cyclobutyl-N-(4-methylpiperazine-1-sulfonyl)-1-phenyl-4-{4-[(pyrrolidin-1-yl)methyl]piperidin-1-yl}-1H-pyrazolo[3,4-b]pyridine-6-carboxamide]
% Activation [1, 3]: 306.75% | EC50 [1, 4]: 505 nM | % Activation [2, 5]: 125.8% | EC50 [2, 6]: 596 nM

CC1(S(=O)(=O)NC(=O)c2cc(N3CCC(CN4CCCC4)CC3)c3c(C4CCC4)nn(-c4ccccc4)c3n2)CC1 [Compound 461, 3-cyclobutyl-N-(1-methylcyclopropane-1-sulfonyl)-1-phenyl-4-{4-[(pyrrolidin-1-yl)methyl]piperidin-1-yl}-1H-pyrazolo[3,4-b]pyridine-6-carboxamide]
% Activation [1, 3]: 364.1% | EC50 [1, 4]: 177 nM | % Activation [2, 5]: 212.3% | EC50 [2, 6]: 209 nM

O=C(NS(=O)(=O)C1CC1)c1cc(N2CCC(CN3CCCC3)CC2)c2c(C3CCC3)nn(-c3ccccc3)c2n1 [Compound 462, 3-cyclobutyl-N-(cyclopropanesulfonyl)-1-phenyl-4-{4-[(pyrrolidin-1-yl)methyl]piperidin-1-yl}-1H-pyrazolo[3,4-b]pyridine-6-carboxamide]
% Activation [1, 3]: 495.1% | EC50 [1, 4]: 107 nM | % Activation [2, 5]: 317.4% | EC50 [2, 6]: 776 nM

CCS(=O)(=O)NC(=O)c1cc(N2CCC(CN3CCCC3)CC2)c2c(C3CCC3)nn(-c3ccccc3)c2n1 [Compound 463, 3-cyclobutyl-N-(ethanesulfonyl)-1-phenyl-4-{4-[(pyrrolidin-1-yl)methyl]piperidin-1-yl}-1H-pyrazolo[3,4-b]pyridine-6-carboxamide]
% Activation [1, 3]: 490.6% | EC50 [1, 4]: 194 nM | % Activation [2, 5]: 263.9% | EC50 [2, 6]: 419 nM

COCCS(=O)(=O)NC(=O)c1cc(N2CCC(CN3CCCC3)CC2)c2c(C3CCC3)nn(-c3ccccc3)c2n1 [Compound 464, 3-cyclobutyl-N-(2-methoxyethanesulfonyl)-1-phenyl-4-{4-[(pyrrolidin-1-yl)methyl]piperidin-1-yl}-1H-pyrazolo[3,4-b]pyridine-6-carboxamide]
% Activation [1, 3]: 423.3% | EC50 [1, 4]: 170 nM | % Activation [2, 5]: 277.5% | EC50 [2, 6]: 306 nM

CC(C)(C)S(=O)(=O)NC(=O)c1cc(N2CCC(CN3CCCC3)CC2)c2c(C3CCC3)nn(-c3ccccc3)c2n1 [Compound 465, 3-cyclobutyl-N-(2-methylpropane-2-sulfonyl)-1-phenyl-4-{4-[(pyrrolidin-1-yl)methyl]piperidin-1-yl}-1H-pyrazolo[3,4-b]pyridine-6-carboxamide]
% Activation [1, 3]: 293.15% | EC50 [1, 4]: 360 nM | % Activation [2, 5]: 131.6% | EC50 [2, 6]: 313 nM

CCS(=O)(=O)NC(=O)c1cc(N2CCC(N3CCOCC3)CC2)c2c(C3CCC3)nn(-c3ccc(F)cc3)c2n1 [Compound 466, 3-cyclobutyl-N-(ethanesulfonyl)-1-(4-fluorophenyl)-4-[4-(morpholin-4-yl)piperidin-1-yl]-1H-pyrazolo[3,4-b]pyridine-6-carboxamide]
% Activation [1, 3]: 522.47% | EC50 [1, 4]: 64.1 nM | % Activation [2, 5]: 318.7% | EC50 [2, 6]: 176 nM

CN(C)S(=O)(=O)NC(=O)c1cc(-c2ccc(CN3CCOCC3)cc2)c2c(C3CCC3)nn(C3CCCCC3)c2n1 [Compound 475, 3-cyclobutyl-1-cyclohexyl-N-(dimethylsulfamoyl)-4-{4-[(morpholin-4-yl)methyl]phenyl}-1H-pyrazolo[3,4-b]pyridine-6-carboxamide]
% Activation [1, 3]: 289.95% | EC50 [1, 4]: 112 nM | % Activation [2, 5]: 140.1% | EC50 [2, 6]: 179 nM

CN(C)S(=O)(=O)NC(=O)c1cc(-c2ccc(CCN3CCOCC3)cc2)c2c(C3CCC3)nn(C3CCCCC3)c2n1 [Compound 476, 3-cyclobutyl-1-cyclohexyl-N-(dimethylsulfamoyl)-4-{4-[2-(morpholin-4-yl)ethyl]phenyl}-1H-pyrazolo[3,4-b]pyridine-6-carboxamide]
% Activation [1, 3]: 355.65% | EC50 [1, 4]: 151 nM | % Activation [2, 5]: 134.2% | EC50 [2, 6]: 215 nM

C#CCCS(=O)(=O)NC(=O)c1cc(N2CCC(N3CCOCC3)CC2)c2c(C3CCC3)nn(-c3ccc(F)cc3)c2n1 [Compound 477, N-(but-3-yne-1-sulfonyl)-3-cyclobutyl-1-(4-fluorophenyl)-4-[4-(morpholin-4-yl)piperidin-1-yl]-1H-pyrazolo[3,4-b]pyridine-6-carboxamide]
% Activation [1, 3]: 536.7% | EC50 [1, 4]: 34.7 nM | % Activation [2, 5]: 341.4% | EC50 [2, 6]: 117 nM

CCS(=O)(=O)NC(=O)c1cc(N2CCC(N3CCCCC3)CC2)c2c(C3CCC3)nn(-c3ccc(F)cc3)c2n1 [Compound 478, 4-([1,4'-bipiperidin]-1'-yl)-3-cyclobutyl-N-(ethanesulfonyl)-1-(4-fluorophenyl)-1H-pyrazolo[3,4-b]pyridine-6-carboxamide]
% Activation [1, 3]: 476.7% | EC50 [1, 4]: 127 nM | % Activation [2, 5]: 295.4% | EC50 [2, 6]: 2640 nM

CN(C)S(=O)(=O)NC(=O)c1cc(-c2ccc(CN3CCOCC3)cc2)c2c(OC3CCC3)nn(C3CCCCC3)c2n1 [Compound 481, 3-(cyclobutyloxy)-1-cyclohexyl-N-(dimethylsulfamoyl)-4-{4-[(morpholin-4-yl)methyl]phenyl}-1H-pyrazolo[3,4-b]pyridine-6-carboxamide]
% Activation [1, 3]: 285.65% | EC50 [1, 4]: 154 nM | % Activation [2, 5]: 114.2% | EC50 [2, 6]: 278 nM

CC(C)N(C)S(=O)(=O)NC(=O)c1cc(N2CCC(N3CCOCC3)CC2)c2c(C3CCC3)nn(-c3ccc(F)cc3)c2n1 [Compound 482, 3-cyclobutyl-1-(4-fluorophenyl)-N-[methyl(propan-2-yl)sulfamoyl]-4-[4-(morpholin-4-yl)piperidin-1-yl]-1H-pyrazolo[3,4-b]pyridine-6-carboxamide]
% Activation [1, 3]: 436.4% | EC50 [1, 4]: 61.6 nM | % Activation [2, 5]: 214.1% | EC50 [2, 6]: 88.2 nM

CCN(C)S(=O)(=O)NC(=O)c1cc(N2CCC(N3CCOCC3)CC2)c2c(C3CCC3)nn(-c3ccc(F)cc3)c2n1 [Compound 483, 3-cyclobutyl-N-[ethyl(methyl)sulfamoyl]-1-(4-fluorophenyl)-4-[4-(morpholin-4-yl)piperidin-1-yl]-1H-pyrazolo[3,4-b]pyridine-6-carboxamide]
% Activation [1, 3]: 438.2% | EC50 [1, 4]: 56.1 nM | % Activation [2, 5]: 212.7% | EC50 [2, 6]: 84.9 nM

O=C(NS(=O)(=O)N1CCCC1)c1cc(N2CCC(N3CCOCC3)CC2)c2c(C3CCC3)nn(-c3ccc(F)cc3)c2n1 [Compound 485, 3-cyclobutyl-1-(4-fluorophenyl)-4-[4-(morpholin-4-yl)piperidin-1-yl]-N-(pyrrolidine-1-sulfonyl)-1H-pyrazolo[3,4-b]pyridine-6-carboxamide]
% Activation [1, 3]: 399.1% | EC50 [1, 4]: 90.2 nM | % Activation [2, 5]: 218.55% | EC50 [2, 6]: 155 nM
